Where two headings read alike, the source gives them in different places.
Legend:
DLD-1 BRCA2−/− cells = test: Homologous recombination synthetic lethal inhibition of proliferation, DLD-1 BRCA2-/- (Cell Titre Glo 3D); format: cell-based; conditions: for IC50: Homo sapiens
Method in brief: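 DLD-1 BRCA2−/− and parental DLD-1 cells exposed to 10-point dose range (10 μM to 0.51 nM, 3-fold) in RPMI/10% FBS at 37 °C, with medium and compound replenished on day 6. Viability by Cell Titre Glo 3D luminescence at day 7 (DLD-1) or day 12 (BRCA2−/−); IC50 as concentration halving maximum signal.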

DLD-1 cells = test: Inhibition of proliferation, DLD-1 BRCA2 wt control (Cell Titre Glo 3D); format: cell-based; conditions: for IC50: Homo sapiens
Text: This assay identifies anti-proliferative effects of POLQ compounds in the homologous recombination deficient colorectal cell line DLD-1 BRCA2−/− over 8-9 population doublings (7 days for DLD-1 and 12 days for DLD-1 BRCA2−/−). DLD1 BRCA2 wt are used as a control to detect cell toxic effects not specific to homologous recombination deficiency.
DLD-1 BRCA2−/− and DLD-1 cells were kept in continuous culture in Assay Medium (RPMI 1640 phenol red free (Sigma R7509) containing 1% GlutaMAX (Gibco 35050) and 10% Foetal Bovine Serum (Gibco 10270-106)). On the day of the assay cells in culture of ˜80-90% confluent were used. Cell monolayers were washed with 10 mL PBS, then removed and added 2 mL TrypLE Express (Gibco 12604). The cells with TrypLE Express were incubated for 5 minutes in cell culture incubator and then the detached cells resuspend in 15 mL Assay Medium. Cells were counted using a ViCell and the cell images were monitored for clumps of cells, ideally they should be single or <3 cell clusters. The cells were diluted to 3,000 cells/mL of DLD-1 BRCA2−/− and 1,500 cells/mL of DLD-1 in Assay Medium and 100 μL added per well of transparent bottomed, black, tissue culture-treated 96-well plates (CoStar, No. 3904) Assay Ready Plates. The Assay Ready Plates contain a 10 point 10 μM to 0.51 nM dose range with three-fold dilutions in DMSO with a final volume of 100 nL. The plates were incubated at 37° C. with 5% C02 for 6 days. On day 6, 100 μL/well of Assay Medium was added to duplicate Assay Ready Plates. 90 μL of culture medium was removed from the cell plates and replenished with the Assay Media and compounds from the duplicate Assay Ready Plates using the Bravo. The plates were further incubated at 37° C. with 5% CO2. On day 7 the plates containing DLD-1 and Cell Titre Glo 3D (Promega G9683) were equilibrated to room temperature, then 60 μL of Cell Titre Glo 3D was added per well and incubated on a shaking platform for 30 min. Plates were read on the Envision measuring luminescence for 1 second per well. On day 12 the plates containing DLD-1 BRCA2−/− cells and Cell Titre Glo 3D (Promega G9683) were equilibrated to room temperature, then 60 μL Cell Titre Glo 3D added per well and incubated on a shaking platform for 30 min. Plates were read on the Envision measuring luminescence for 1 second per well. The data was exported into a suitable software package (such as Genedata) to perform curve fitting analysis. Inhibition of cell proliferation was expressed as an IC5o value and was determined by calculation of the concentration of compound that was required to give a 50% reduction of the average maximum Total Intensity signal.

[1] = DLD-1, 168 h, DLD-1 BRCA2 wt cells, 7 days, read-out: POLQ PD Prolif Lumin DLD1 mean pIC50 (converted)
[2] = DLD-1, first proliferation column (c5), DLD-1 BRCA2-/-, read-out: POLQ PD Prolif Lumin (converted)
[3] = DLD-1, second proliferation column (c6), DLD-1 BRCA2 wt control, read-out: POLQ PD Prolif Lumin (converted)
[4] = DLD-1, DLD-1 BRCA2-/- proliferation, column head only partly shown, read-out: POLQ PD Prolif Lumin (converted)
[5] = DLD-1, DLD-1 BRCA2 wt control proliferation, column head only partly shown, read-out: POLQ PD Prolif Lumin (converted)
[6] = DLD-1, DLD-1 BRCA2 −/−, mean, read-out: POLQ PD Prolif Lumin BRCA2 −/− mean pIC50 (converted)
[7] = DLD-1, DLD1 BRCA2 wt, mean, read-out: POLQ PD Prolif Lumin DLD1 mean pIC50 (converted)

CN1CCCC1CCOc1ccc(-c2nc3c(OC4(C)CC4)ncnc3n2Cc2ccccc2)c(Cl)c1 (racemic) [Example D2, 9-benzyl-8-(2-chloro-4-(2-(1-methylpyrrolidin-2-yl)ethoxy)phenyl)-6-(1-methylcyclopropoxy)-9H-purine]
IC50 (DLD-1 BRCA2−/− cells; DLD-1, 288 h, DLD-1 BRCA2−/− cells, 12 days, read-out: POLQ PD Prolif Lumin BRCA2 −/− mean pIC50 (converted)): 15.8 nM
IC50 (DLD-1 cells; [1]): 1260 nM

Cc1ccnc(Cn2c(-c3ccc(OC4CNC(=O)C4)cc3Cl)nc3c(OC4(C)CC4)ncnc32)c1 (racemic) [Example T179, 4-(3-chloro-4-(6-(1-methylcyclopropoxy)-9-((4-methylpyridin-2-yl)methyl)-9H-purin-8-yl)phenoxy)pyrrolidin-2-one]
IC50 (DLD-1 BRCA2−/− cells; [2]): 316 nM
IC50 (DLD-1 cells; [3]): > 10000 nM

Cc1ccnc(Cn2c(-c3ccc(OC4CNC(=O)OC4)cc3Cl)nc3c(OC4(C)CC4)ncnc32)c1 (racemic) [Example T187, 5-(3-chloro-4-(6-(1-methylcyclopropoxy)-9-((4-methylpyridin-2-yl)methyl)-9H-purin-8-yl)phenoxy)-1,3-oxazinan-2-one]
IC50 (DLD-1 BRCA2−/− cells; [2]): 1000 nM
IC50 (DLD-1 cells; [3]): > 10000 nM

CC(CCOc1ccc(-c2nc3c(OC4(C)CC4)ncnc3n2Cc2c(F)c(F)c(F)c(F)c2F)c(Cl)c1)C(=O)O (racemic) [Example T251, 4-(3-chloro-4-(6-(1-methylcyclopropoxy)-9-((perfluorophenyl)methyl)-9H-purin-8-yl)phenoxy)-2-methylbutanoic acid]
IC50 (DLD-1 BRCA2−/− cells; [4]): 2000 nM
IC50 (DLD-1 cells; [5]): > 10000 nM

CC(CCOc1ccc(-c2nc3c(OC4(C#N)CC4)ncnc3n2Cc2cccc(Cl)c2)c(Cl)c1)C(=O)O (racemic) [Example T252, 4-(3-chloro-4-(9-(3-chlorobenzyl)-6-(1-cyanocyclopropoxy)-9H-purin-8-yl)phenoxy)-2-methylbutanoic acid]
IC50 (DLD-1 BRCA2−/− cells; [4]): 398 nM
IC50 (DLD-1 cells; [5]): > 10000 nM

CC(CCOc1ccc(-c2nc3c(OC4(C)CC4)ncnc3n2Cc2cc(Br)ccc2F)c(Cl)c1)C(=O)O (racemic) [Example T258, 4-(4-(9-(5-bromo-2-fluorobenzyl)-6-(1-methylcyclopropoxy)-9H-purin-8-yl)-3-chlorophenoxy)-2-methylbutanoic acid]
IC50 (DLD-1 BRCA2−/− cells; [4]): 79.4 nM
IC50 (DLD-1 cells; [5]): > 10000 nM

CC(CCOc1ccc(-c2nc3c(OC4(C)CC4)ncnc3n2Cc2c(Cl)cccc2Br)c(Cl)c1)C(=O)O (racemic) [Example T259, 4-(4-(9-(2-bromo-6-chlorobenzyl)-6-(1-methylcyclopropoxy)-9H-purin-8-yl)-3-chlorophenoxy)-2-methylbutanoic acid]
IC50 (DLD-1 BRCA2−/− cells; [4]): 3160 nM
IC50 (DLD-1 cells; [5]): > 10000 nM

Cc1ccnc(Cn2c(-c3ccc(C4CCC(=O)N4)cc3Cl)nc3c(OC4(C)CC4)ncnc32)c1 (single isomer, unassigned) [Example T173, 5-(3-chloro-4-(6-(1-methylcyclopropoxy)-9-((4-methylpyridin-2-yl)methyl)-9H-purin-8-yl)phenyl)pyrrolidin-2-one]
IC50 (DLD-1 cells; [3]): > 10000 nM

Cc1ccnc(Cn2c(-c3ccc(OC4CCCNCC4)cc3Cl)nc3c(OC4(C)CC4)ncnc32)c1 (single isomer, unassigned) [Example T509, 8-(4-(azepan-4-yloxy)-2-chlorophenyl)-6-(1-methylcyclopropoxy)-9-((4-methylpyridin-2-yl)methyl)-9H-purine]
IC50 (DLD-1 cells; [3]): > 10000 nM

Cc1cc(OC2CNC2)ncc1-c1nc2c(OC3(C)CC3)ncnc2n1Cc1ccccc1 [Example G17, 8-{6-[(azetidin-3-yl)oxy]-4-methylpyridin-3-yl}-9-benzyl-6-[(1-methylcyclopropyl)oxy]-9H-purine]
IC50 (DLD-1 cells; [1]): 7940 nM

CC1(Oc2ncnc3c2nc(-c2ccc(OCCN4CCNCC4)cc2Cl)n3CCc2ccccn2)CC1 [Example J11, 8-(2-chloro-4-(2-(piperazin-1-yl)ethoxy)phenyl)-6-(1-methylcyclopropoxy)-9-(2-(pyridin-2-yl)ethyl)-9H-purine]
IC50 (DLD-1 cells; [1]): > 10000 nM

Cn1cnnc1Cn1c(-c2ccc(OCCN3CCNCC3)cc2Cl)nc2c(OC3(C)CC3)ncnc21 [Example T150, 8-(2-chloro-4-(2-(piperazin-1-yl)ethoxy)phenyl)-9-((4-methyl-4H-1,2,4-triazol-3-yl)methyl)-6-(1-methylcyclopropoxy)-9H-purine]
IC50 (DLD-1 cells; [3]): > 10000 nM

CC1(Oc2ncnc3c2nc(-c2ccc(OCCC(C)(C)C(=O)O)cc2Cl)n3Cc2cc(Cl)ccc2F)CC1 [Example U46, 4-(3-chloro-4-(9-(5-chloro-2-fluorobenzyl)-6-(1-methylcyclopropoxy)-9H-purin-8-yl)phenoxy)-2,2-dimethylbutanoic acid]
IC50 (DLD-1 BRCA2−/− cells; [6]): 31.6 nM

CC1(Oc2ncnc3c2nc(-c2ccc(O[C@H]4CC[C@H](C(=O)O)CC4)cc2Cl)n3Cc2cc(Cl)ccc2F)CC1 [Example U49, (1r,4r)-4-(3-chloro-4-(9-(5-chloro-2-fluorobenzyl)-6-(1-methylcyclopropoxy)-9H-purin-8-yl)phenoxy)cyclohexane-1-carboxylic acid]
POLQ PD Prolif Lumin BRCA2 −/− mean pIC50 (DLD-1 BRCA2−/− cells; DLD-1 BRCA2 −/−, mean): 7.3

CC1(Oc2ncnc3c2nc(-c2cccc(OCC(F)(F)CC(=O)O)c2Cl)n3Cc2cccc(Cl)c2)CC1 [Example U63, 4-(2-chloro-3-(9-(3-chlorobenzyl)-6-(1-methylcyclopropoxy)-9H-purin-8-yl)phenoxy)-3,3-difluorobutanoic acid]
IC50 (DLD-1 BRCA2−/− cells; [6]): 501 nM

CC1(Oc2ncnc3c2nc(-c2c(F)ccc(OCCC(=O)O)c2Cl)n3Cc2cccc(Cl)c2)CC1 [Example U66, 3-(2-chloro-3-(9-(3-chlorobenzyl)-6-(1-methylcyclopropoxy)-9H-purin-8-yl)-4-fluorophenoxy)propanoic acid]
IC50 (DLD-1 BRCA2−/− cells; [6]): 200 nM

COc1ccc(F)cc1Cn1c(-c2cccc(OCCCOCC(=O)O)c2Cl)nc2c(OC3(C)CC3)ncnc21 [Example U71, 2-(3-(2-chloro-3-(9-(5-fluoro-2-methoxybenzyl)-6-(1-methylcyclopropoxy)-9H-purin-8-yl)phenoxy)propoxy)acetic acid]
IC50 (DLD-1 cells; [7]): > 10000 nM

COc1ccc(F)cc1Cn1c(-c2cccc(OCC[C@H](C)C(=O)O)c2Cl)nc2c(OC3(C)CC3)ncnc21 [Example U72, (S)-4-(2-chloro-3-(9-(5-fluoro-2-methoxybenzyl)-6-(1-methylcyclopropoxy)-9H-purin-8-yl)phenoxy)-2-methylbutanoic acid]
IC50 (DLD-1 BRCA2−/− cells; [6]): 1.58 nM

COc1ccc(F)cc1Cn1c(-c2cccc(OCC[C@@H](C)C(=O)O)c2Cl)nc2c(OC3(C)CC3)ncnc21 [Example U78, (R)-4-(2-chloro-3-(9-(5-fluoro-2-methoxybenzyl)-6-(1-methylcyclopropoxy)-9H-purin-8-yl)phenoxy)-2-methylbutanoic acid]
IC50 (DLD-1 cells; [7]): > 10000 nM

CC1(Oc2ncnc3c2nc(-c2cccc(O[C@H]4CC[C@H](C(=O)O)CC4)c2Cl)n3Cc2cc(Cl)ccc2C#N)CC1 [Example U85, (1r,4r)-4-(2-chloro-3-(9-(5-chloro-2-cyanobenzyl)-6-(1-methylcyclopropoxy)-9H-purin-8-yl)phenoxy)cyclohexane-1-carboxylic acid]
POLQ PD Prolif Lumin DLD1 mean pIC50 (DLD-1 cells; DLD1 BRCA2 wt, mean): <5.0

COc1ccc(Cl)cc1Cn1c(-c2ccc(OCCCOC(C)(C)C(=O)O)cc2Cl)nc2c(OC3(C)CC3)ncnc21 [Example U92, 2-(3-(3-chloro-4-(9-(5-chloro-2-methoxybenzyl)-6-(1-methylcyclopropoxy)-9H-purin-8-yl)phenoxy)propoxy)-2-methylpropanoic acid]
IC50 (DLD-1 cells; [7]): > 10000 nM

Source: patent publication US20250195530A1, “POLQ INHIBITORS” (ASTRAZENECA AB, priority 2022, published 2025)
